The values below come from patent US20240408008A1, “AN IN-SITU GELLING ENEMA OF RIFAMYCIN FOR TREATING POUCHITIS AND DISTAL ULCERATIVE COLITIS” (COSMO TECHNOLOGIES LTD., priority 2021, published 2024).

Each structure is given as a SMILES string.

The test system of test [1] is DSS induced colitis. Description: Acute colitis induced by Dextran Sulfate Sodium (DSS). The settings on record: mice, DSS 2%, PO 100 mg/Kg. The test is classed as in vivo. Here is the method: In situ gel enema formulation batch 7663 (same formulation as batch 7639) in vivo efficacy was tested in a murine model of acute colitis induced by Dextran Sulfate Sodium (DSS). This animal model is perhaps the most widely used mouse model of colitis and employs DSS, a chemical colitogen with anticoagulant properties, to induce disease which closely resembles human UC. DSS induced intestinal inflammation results in damage to the epithelial monolayer lining the large intestine allowing the dissemination of proinflammatory intestinal contents (e.g. bacteria and their products) into underlying tissue.
For this study, a group of mice was treated by enema with Batch 7663 (indicated as CB0125 in the figures) (dose 45 mg/kg), one group was treated by enema with Placebo Batch 7679 as a comparator for 7663; a group was treated by enema with Rifamycin powder dissolved in water (67 mg/kg). One group of mice was treated orally PO with 5-ASA at the dose of 100 mg/Kg; this group was introduced as positive control. 5-ASA is the golden standard therapy for inflammatory bowel diseases, including UC, distal UC and proctitis. One group was treated by enema with the vehicle (H2O) only, as negative control.
Briefly DSS (2%) was dissolved in water (w/v) and given to mice in place of normal drinking water. DSS water was provided ad libitum for 5 days and was changed daily. This period was followed by a washout period of 5 days with water only. Mice were weighed daily and monitored for clinical status including hunching, mobility, soft stool and/or diarrhoea. At end of the study mice were sacrificed by CO2 inhalation. Immediately after euthanasia, the animals were laparatomyzed and intestine was exteriorized. The entire colon was isolated from the caecum to the anus, placed unstretched on a ruler and then measured and weighed after rinsing the lumen with saline. The weight was normalized to the colon length by calculating the ratio.
For histological analysis of colon samples, about 2 cm of the middle portion of isolated colon was fixed in a 10% formalin. Each fixed fragment was embedded in paraffin. The slides were stained with haematoxylin and eosin and assessed according to the histological score.

For test [2], the system named is mTOR pathway. Description: Inhibition of mTOR and S6R phosphorylation in primary colonic epithelial cells, flow cytometry. It is filed as cell-based, human. The settings on record: Homo sapiens, Epithelial cell; serum stimulated primary colonic epithelial cells, 48 hr; read-out: IC50, % cells positive for anti-pmTOR and anti-pS6R relative to DMSO. Here is the method:
To evaluate Rifamycin activity on the mTOR pathway, primary colonic epithelial cells were serum starved for 24 hr and restimulated with serum for 48 hr to induce phosphorylation of mTOR and its downstream target protein […]. Serum stimulated cells were treated with Rifamycin SV, Rifaximin, the positive control Rapamycin, or the negative vehicle control DMSO. Cells were fixed, stained with antibodies against pmTOR and pS6R then analyzed by flow cytometry.
A general note: In flow cytometry, cells or beads pass a laser one at a time.

As to `Nc1ccc(O)c(C(=O)O)c1` [Batch 5-ASA, 5-aminosalycilic acid], the histological score result in test [1] (compared to 7663) is recorded as “lower improvement”. For the same compound, the “clinical score AUC” value in test [1] (compared to batch 7663) is recorded as “lower efficacy”.
`CO[C@H]1C[C@@H]2CC[C@@H](C)[C@@](O)(O2)C(=O)C(=O)N2CCCC[C@H]2C(=O)O[C@H]([C@H](C)C[C@@H]2CC[C@@H](O)[C@H](OC)C2)CC(=O)[C@H](C)/C=C(\C)[C@@H](O)[C@@H](OC)C(=O)[C@H](C)C[C@H](C)/C=C/C=C/C=C/1C` [Rapamycin]: the IC50 (commonly the midpoint of a concentration-inhibition curve) in test [2] is 0.53 µM.
Still for that read-out and setting: to `CO[C@H]1/C=C/O[C@@]2(C)Oc3c(C)c(O)c4c(O)c(c5c(nc6cc(C)ccn65)c4c3C2=O)NC(=O)/C(C)=C\C=C\[C@H](C)[C@H](O)[C@@H](C)[C@@H](O)[C@@H](C)[C@H](OC(C)=O)[C@@H]1C` [Rifaximin] belongs 43 µM.
